Read-outs that look alike come from different tables or passages of the source.

This assay relates to adenovirus type 6 (ADV6). Nature of the assay: Evaluation of anti-adenovirus activity: CRL-11516 cells infected with ADV6, anti-hexon staining, count of stained cells. It is filed as cell-based. As for the experimental part:
A system in which CRL-11516 cells (available from ATCC) were infected with adenovirus type 6 (hereinafter, referred to as ADV6) was constructed, and a test for evaluating the anti-adenovirus activity of the compound according to the embodiment of the present invention and the compound of Comparative Example was carried out using the system. The test for evaluating the anti-adenovirus activity was carried out according to the method described below.
CRL-11516 cells were added to a 96-well plate at a cell density of 1×10^4 cells/well and cultured at 37° C. for 24 hours. After the culture was completed, the cell culture liquid was removed, and a serial dilution (100 μL) of the compound according to the embodiment of the present invention or the compound of Comparative Example was added. ADV6 (corresponding to 50TCID50) was added thereto, followed by culturing at 37° C. for 48 hours.
After the culture was completed, the infected cells were stained using Adeno-X Rapid Titer Kit (manufactured by Takara Bio Inc.). 100% methanol was added thereto and the cells were fixed at −20° C. for 10 minutes. The plate was washed three times with phosphate buffered saline (hereinafter, referred to as PBS) and then Mouse Anti-Hexon Antibody was added thereto, followed by incubation at 37° C. for 1 hour. After the incubation was completed, the plate was washed three times with PBS, and Rat Anti-Mouse Antibody was added thereto, followed by incubation at 37° C. for 1 hour. After the incubation was completed, a mixed staining solution of Stable Peroxidase Buffer:DAB Substrate=10:1 was added thereto, followed by incubation at room temperature for 10 minutes for staining of the cells.
The number of dark brown-stained cells was counted under a microscope, and the concentration of the test drug that reduces the dark brown-stained cells by 50% was defined as EC50. EC50 values were calculated for the triplicate test results, and a mean value and a standard deviation thereof were determined.

Where [1] appears, read: CRL-11516 cells infected with ADV6, 48 hours culture, concentration reducing dark brown-stained cells by 50%; read-out: Anti-AdV activity EC50.
Where [2] appears, read: Human mastadenovirus C, 48 h, CRL-11516 cells infected with ADV6, 48 hours culture, concentration reducing dark brown-stained cells by 50%; read-out: Anti-AdV activity EC50.
The mark [3] stands for this setting: Human mastadenovirus C; CRL-11516 cells infected with ADV6, 48 hours culture, concentration reducing dark brown-stained cells by 50%; read-out: Anti-AdV activity EC50.

For `COc1nc(N)nc2c1ncn2[C@H]1C=C[C@@H](COP(=O)(N[C@@H](C)C(=O)OC(C)C)Oc2ccc(Cl)cc2)C1` (single isomer, unassigned) [Example 4-8-1], under setting [1], the EC50 – broadly, the concentration that produces a half-maximal response – was in the range of 10 to 100 nM.
Take `COc1nc(N)nc2c1ncn2[C@H]1C=C[C@@H](COP(=O)(N[C@@H](C)C(=O)OC(C)C)Oc2ccc(Cl)cc2)C1` (single isomer, unassigned) [Example 4-8-2]: the EC50 under setting [1] was < 10 nM.
As to `COc1nc(N)nc2c1ncn2[C@H]1C=C[C@@H](COP(=O)(N[C@@H](CC(C)C)C(=O)OC(C)C)Oc2ccccc2)C1` (single isomer, unassigned) [Example 7-1-1], the concentration giving a half-maximal response (EC50) under setting [1] was in the range of 10 to 100 nM.
`COc1nc(N)nc2c1ncn2[C@H]1C=C[C@@H](COP(=O)(N[C@@H](CC(C)C)C(=O)OC(C)C)Oc2ccccc2)C1` (single isomer, unassigned) [Example 7-1-2]: the EC50 under setting [1] was in the range of 100 to 1000 nM.
As for `COC(=O)[C@H](C)NP(=O)(OC[C@@H]1C=C[C@H](n2cnc3c(OC)nc(N)nc32)C1)Oc1ccc(Cl)cc1` (stereo partly drawn) [Example 1-2-2, methyl ((((1S,4R)-4-(2-amino-6-methoxy-9H-purin-9-yl)cyclopent-2-en-1-yl)methoxy)(4-chlorophenoxy)phosphoryl)-L-alaninate], the concentration giving a half-maximal response (EC50) under setting [2] is < 10 nM.
Take `COC(=O)[C@H](C)NP(=O)(OC[C@@H]1C=C[C@H](n2cnc3c(OC)nc(N)nc32)C1)Oc1ccc(Br)cc1` (stereo partly drawn) [Example 1-2-3, methyl ((((1S,4R)-4-(2-amino-6-methoxy-9H-purin-9-yl)cyclopent-2-en-1-yl)methoxy)(4-bromophenoxy)phosphoryl)-L-alaninate]: the EC50 under setting [2] was < 10 nM.
Regarding `COC(=O)[C@H](C)NP(=O)(OC[C@@H]1C=C[C@H](n2cnc3c(Cl)nc(N)nc32)C1)Oc1ccc(Cl)cc1` (stereo partly drawn) [Example 1-2-4, methyl ((((1S,4R)-4-(2-amino-6-chloro-9H-purin-9-yl)cyclopent-2-en-1-yl)methoxy)(4-chlorophenoxy)phosphoryl)-L-alaninate], the EC50 under setting [1] is < 10 nM.
Regarding `COC(=O)[C@H](C)NP(=O)(OC[C@@H]1C=C[C@H](n2cnc3c(N)nc(N)nc32)C1)Oc1ccc(Br)cc1` (stereo partly drawn) [Example 1-2-6, Methyl ((4-bromophenoxy)(((1S,4R)-4-(2,6-diamino-9H-purin-9-yl)cyclopent-2-en-1-yl)methoxy)phosphoryl)-L-alaninate], the EC50 under setting [2] was in the range of 100 to 1000 nM.
Consider `COc1nc(N)nc2c1ncn2[C@H]1C=C[C@@H](COP(=O)(OCCSSCCOCc2ccccc2)OCCSSCCOCc2ccccc2)C1` [Example 1-2-8, ((1S,4R)-4-(2-amino-6-methoxy-9H-purin-9-yl)cyclopent-2-en-1-yl)methylbis(2-((2-(benzyloxy)ethyl)disulfanyl)ethyl)phosphate], for which the EC50 under setting [1] fell in the range of 10 to 100 nM.
`COC(=O)[C@H](C)NP(=O)(OCCSC(=O)C(C)(C)C)OC[C@@H]1C=C[C@H](n2cnc3c(OC)nc(N)nc32)C1` (stereo partly drawn) [Example 1-2-12, methyl ((((1S,4R)-4-(2-amino-6-methoxy-9H-purin-9-yl)cyclopent-2-en-1-yl)methoxy)(2-(pivaloylthio)ethoxy)phosphoryl)-L-alaninate]: the EC50 under setting [3] is < 10 nM.
For `CCOC(=O)[C@H](C)NP(=O)(OC[C@@H]1C=C[C@H](n2cnc3c(OC)nc(N)nc32)C1)Oc1ccccc1` (stereo partly drawn) [Example 1-2-34, ethyl ((((1S,4R)-4-(2-amino-6-methoxy-9H-purin-9-yl)cyclopent-2-en-1-yl)methoxy)(phenoxy)phosphoryl)-L-alaninate], the EC50 under setting [2] is 10 to 100 nM.
For `COC(=O)[C@H](C)NP(=O)(OC[C@@H]1C=C[C@H](n2cnc3c(N(C)C)nc(N)nc32)C1)Oc1ccc(Br)cc1` (stereo partly drawn) [Example 1-2-45, Methyl ((((1S,4R)-4-(2-amino-6-(dimethylamino)-9H-purin-9-yl)cyclopent-2-en-1-yl)methoxy)(4-bromophenoxy)phosphoryl)-L-alaninate], the EC50 under setting [2] is < 10 nM.
As for `CNc1nc(N)nc2c1ncn2[C@H]1C=C[C@@H](COP(=O)(N[C@@H](C)C(=O)OC)Oc2ccc(Br)cc2)C1` (stereo partly drawn) [Example 1-2-46, Methyl ((((1S,4R)-4-(2-amino-6-(methylamino)-9H-purin-9-yl)cyclopent-2-en-1-yl)methoxy)(4-bromophenoxy)phosphoryl)-L-alaninate], the EC50 under setting [2] was < 10 nM.
On the same count and under the same terms, next, `COC(=O)C(C)(C)NP(=O)(OC[C@@H]1C=C[C@H](n2cnc3c(OC)nc(N)nc32)C1)Oc1ccc(Br)cc1` (stereo partly drawn) [Example 1-2-49, Methyl 2-(((((1S,4R)-4-(2-amino-6-methoxy-9H-purin-9-yl)cyclopent-2-en-1-yl)methoxy)(4-bromophenoxy)phosphoryl)amino)-2-methylpropanoate]: < 10 nM.
Turning to `COc1nc(N)nc2c1ncn2[C@H]1C=C[C@@H](COP(=O)(N[C@@H](C)C(=O)OC2CC2)Oc2ccccc2)C1` (stereo partly drawn) [Example 1-2-58, cyclopropyl ((((1S,4R)-4-(2-amino-6-methoxy-9H-purin-9-yl)cyclopent-2-en-1-yl)methoxy)(phenoxy)phosphoryl)-L-alaninate], the EC50 under setting [2] is 10 to 100 nM.
With `CC(C)OC(=O)[C@H](C)NP(=O)(OC[C@@H]1C=C[C@H](n2cnc3c(Cl)nc(N)nc32)C1)Oc1ccc(Cl)cc1` (stereo partly drawn) [Example 1-2-70, isopropyl ((((1S,4R)-4-(2-amino-6-chloro-9H-purin-9-yl)cyclopent-2-en-1-yl)methoxy)(4-chlorophenoxy)phosphoryl)-L-alaninate], under setting [2], the EC50 is 10 to 100 nM.
In the case of `COc1nc(N)nc2c1ncn2[C@H]1C=C[C@@H](COP(=O)(N[C@@H](C)C(=O)OC(C)C)Oc2ccc(Cl)cc2)C1` (stereo partly drawn) [Example 1-2-72, isopropyl ((((1S,4R)-4-(2-amino-6-methoxy-9H-purin-9-yl)cyclopent-2-en-1-yl)methoxy)(4-chlorophenoxy)phosphoryl)-L-alaninate], the EC50 under setting [2] was 10 to 100 nM.
With `CC(C)OC(=O)[C@H](C)NP(=O)(OCCSC(=O)C(C)(C)C)OC[C@@H]1C=C[C@H](n2cnc3c(Cl)nc(N)nc32)C1` (stereo partly drawn) [Example 1-2-73, isopropyl ((((1S,4R)-4-(2-amino-6-chloro-9H-purin-9-yl)cyclopent-2-en-1-yl)methoxy)(2-(pivaloylthio)ethoxy)phosphoryl)-L-alaninate], the EC50 under setting [3] is < 10 nM.
Still for that read-out and setting: next, `COc1nc(N)nc2c1ncn2[C@H]1C=C[C@@H](COP(=O)(N[C@@H](C)C(=O)OC(C)C)OCCSC(=O)C(C)(C)C)C1` (stereo partly drawn) [Example 1-2-74, isopropyl ((((1S,4R)-4-(2-amino-6-methoxy-9H-purin-9-yl)cyclopent-2-en-1-yl)methoxy)(2-(pivaloylthio)ethoxy)phosphoryl)-L-alaninate]: 10 to 100 nM; `Nc1nc2c(ncn2[C@H]2C=C[C@@H](CO)C2)c(=O)[nH]1` [Example 1]: 1000 to 10000 nM.
On to `COc1nc(N)nc2c1ncn2[C@H]1C=C[C@@H](COP(=O)(OCCSC(=O)C(C)(C)C)Oc2ccccc2)C1` (stereo partly drawn) [Example 2-1, S-(2-(((((1S,4R)-4-(2-amino-6-methoxy-9H-purin-9-yl)cyclopent-2-en-1-yl)methoxy)(phenoxy)phosphoryl)oxy)ethyl) 2,2-dimethylpropanethioate], for which the EC50 (read-out: Anti-AdV activity EC50; CRL-11516 cells infected with ADV6, 48 hours culture, concentration reducing dark brown-stained cells by 50%) is < 10 nM.
Take `CC(C)OC(=O)[C@H](C)NP(=O)(OC[C@@H]1C=C[C@H](n2cnc3c(Cl)nc(N)nc32)C1)Oc1ccccc1` (stereo partly drawn) [Example 2-2-1, isopropyl ((((1S,4R)-4-(2-amino-6-chloro-9H-purin-9-yl)cyclopent-2-en-1-yl)methoxy)(phenoxy)phosphoryl)-L-alaninate]: under setting [1], the EC50 fell in the range of 100 to 1000 nM.
On to `CC(C)OC(=O)[C@H](C)NP(=O)(OC[C@@H]1C=C[C@H](n2cnc3c(NC4CC4)nc(N)nc32)C1)Oc1ccccc1` (stereo partly drawn) [Example 2-2-2, Isopropyl ((((1S,4R)-4-(2-amino-6-(cyclopropyl-amino)-9H-purin-9-yl)cyclopent-2-en-1-yl)methoxy) (phenoxy)phosphoryl)-L-alaninate], for which the EC50 under setting [2] lay within 100 to 1000 nM.
Consider `COC(=O)[C@H](C)NP(=O)(OC[C@@H]1C=C[C@H](n2cnc3c(NC4CC4)nc(N)nc32)C1)Oc1ccccc1` (stereo partly drawn) [Example 2-2-3, Methyl ((((1S,4R)-4-(2-amino-6-(cyclopropyl-amino)-9H-purin-9-yl)cyclopent-2-en-1-yl)methoxy) (phenoxy)phosphoryl)-L-alaninate], for which the EC50 under setting [2] fell in the range of 10 to 100 nM.
As to `COC(=O)[C@H](C)NP(=O)(OC[C@@H]1C=C[C@H](n2cnc3c(Cl)nc(N)nc32)C1)Oc1ccccc1` (stereo partly drawn) [Example 2-2-7, Methyl ((((1S,4R)-4-(2-amino-6-chloro-9H-purin-9-yl)cyclopent-2-en-1-yl)methoxy) (phenoxy)phosphoryl)-L-alaninate], the 50% effective concentration (EC50) under setting [2] fell in the range of 10 to 100 nM.

The values above are taken from US20210155644A1, “CYCLOPENTENYL PURINE DERIVATIVE OR SALT THEREOF” (Fujifilm Corporation, priority 2018, published 2021).
